The results in this text go back to patent US20100278837A1, “Compositions And Methods For Reducing Cancer And Inflammation” (The Regents of the University of California, priority 2009, published 2010).

Series [1] has as its system CD11b+ cells adhesion to endothelium. Kind of series: Adhesion of CD11b+ cells to endothelium (Example 1 adhesion assay). Conditions: SDF-1α, TCM or IL-1β (and other chemoattractant) induced. Format: cell-based, murine. How it is done: TCM was prepared from serum-free media cultured on LLC cells for 18 h and filtered through 0.22 μm filters. 10^5 calcein-AM labelled human or murine CD11b+ cells in TCM or DMEM containing 200 ng/ml SDF-1α, IL-1β, IL-6, IL-8 or VEGF-A (R&D Systems) were incubated on HUVEC monolayers or on plastic plates coated with 5 μg/ml recombinant soluble VCAM-1 (R&D Systems). Adherent cells were quantified using a fluorescence activated plate reader (GeniosPro, TECAN). In some assays, cells were also incubated in 25 μg/ml anti-integrin α4β1 (PS2 for murine cells and HP2/1 for human cells, gifts from Biogen-Idec) and isotype control antibodies (IgG2bk for murine cells and IgG1 for human cells). In some studies, cells were incubated in 10 μM pan PI3K inhibitors […] or TG020, in PI3kinase α inhibitor PI3K75, PI3kinase γ/δ inhibitor TG115 and an inert control.

The subject of the next series is PI3kinase. Kind of series: In vivo PI3kinase activity assay (pAkt/Akt in peripheral blood mononuclear cells after i.v. dosing). Also noted: species or system mice. The method, then:
(§1) Pharmacokinetic analysis of a 5 mg/kg bolus dose TG100-115 in Balb-c mice was accomplish by evaluating TG100-115 levels in serum at 5, 15, 30, 60 minute intervals as was previously performed for rats^25. In vivo activity assay of a 5 mg/kg bolus dose TG100-115 in Balb-c mice was accomplish by evaluating pAkt/Akt levels in peripheral blood cells in response to SDF-1α stimulation at 0.25, 0.5, 1, 2, 4, 6 and 12 hour intervals
CD11b+ cells from C57BL/6 mice or PI3-kinase γ−/− mice were freshly isolated under serum free-conditions and were incubated for 30 min in serum-free media in the presence or absence of 1 μM TG100-115. CD11b+ cells were then stimulated with 200 ng/ml IL-1β or SDF-1α (R&D Systems) for 1-3 minutes and cells were solubilized with RIPA buffer. Alternatively, mice were injected intravenously with […] TG100-115 or a chemically similar inert control. Mononuclear peripheral blood leukocytes were isolated from 2 mice each at 0.5, 1, 2, 4, 6 and 12 hours after treatment. Cells were treated for 3 minutes with 200 ng/ml SDF and then solubilized with RIPA buffer. Lysates were electrophoresed and Western blotted. Akt phosphorylation was evaluated by immunoblotting with anti-phosphorylated Thr308-Akt specific antibody (C31 E5E, Cell Signalling). Blots were stripped and reprobed with anti-Akt (#9272, Cell Signaling). Films were scanned and quantified by densitometry.

Series [2] deals with CD11b+ myeloid cell adhesion to VCAM-1. Kind of series: Chemoattractant-stimulated CD11b+ myeloid cell adhesion to VCAM-1 / endothelial cells (Example 9 adhesion assay). It counts as cell-based, mouse. Conditions: Mus musculus, Endothelial cell, read-out: IC50, CD11b+ cell adhesion to VCAM-1. The method, then:
1×10^5 calcein-AM labelled human CD11b+ cells isolated from buffy coats from the San Diego Blood Bank or murine CD11b+ cells isolated from naïve (non-tumour bearing) or tumour-bearing mice were incubated on HUVEC monolayers or on plastic plates coated with 5 μg/ml recombinant soluble VCAM-1 or ICAM-1 (R&D Systems) for 30 minutes at 37° C. with humidity in the presence of LLC Tumour Conditioned Medium (TCM) or DMEM containing 200 ng/ml SDF1α, IL1β, IL6, TNFα or VEGF-A (R&D Systems). (SDF-1α and IL-1β were initially titrated to determine the minimum dose required to achieve near maximal stimulation of adhesion). TCM was prepared by incubating LLC cells in serum-free media for 18 h and filtering through 0.22 μm filters. After washing three times with warmed medium, adherent cells were quantified using a plate fluorimeter (GeniosPro, TECAN).
In some adhesion assays, cells were also incubated in 25 μg/ml function-blocking anti-integrin α4β1 (rat anti-murine, PS2 or mouse anti-human, HP2/1, gifts from Biogen-Idec), rat-anti-αM (anti-CD11b, M1/70) and isotype control antibodies (rat IgG2κ or mouse IgG1) or with 0.1 nM-10 μM doses of the small molecule inhibitor of integrin α4, ELN476063 (IC50=10 nM), a gift from Elan^14.
Additionally, labelled cells were incubated with HUVEC and rsVCAM coated plates in the presence of […] or SDF-1α and 1-10 μM inhibitors: pan-PI3 kinase inhibitors ([…], wortmannin), PI3-kinase α inhibitors (PI3K75, PIK2alpha, PI103), PI3-kinase β inhibitor (TGX221), PI3-kinase γ inhibitors (TG100-115, AS605240, AS604850), inert control, PLC inhibitor (U73122), geranylgeranyltransferase (Rap1-selective) inhibitors (GGTI-2147 and GGTI-298) or farnesyltransferase (Ras-selective) inhibitor (FTI-277), Akt inhibitors (Inhibitor X and peptide 18), mTOR inhibitor (rapamycin), ROCK inhibitor (Y27632), MEK inhibitor (PD98059), p38 inhibitor (SB202190), tyrosine kinase inhibitor (genestein) and PKA inhibitors (H89, KT5720). LY294002, wortmannin, genestein, U73122, GGTI-2147, GGTI-298, FTI-277, Y27632, PD98059, SB202190, H89 and KT5720 were from Calbiochem. PIK2alpha, PI103, AS605240, AS604850 and TGX221 were from Echelon. TG100-115 was prepared as described^25-26. To titrate the effect of various signalling protein inhibitors on myeloid cell adhesion stimulated by IL-1β or SDF-1α, cells were incubated in 1 nm to 100 μM PI3-kinase inhibitors TG00020 (a pan-PI3-kinase inhibitor), PI3-kinase α inhibitor (PI3Kalpha2) PI3-kinase β inhibitor (TGX221), PI3-kinase γ inhibitors (TG100-115, AS605240), an inert chemically matched control, farnesyltrasnferase inhibitors and geranylgeranyltransferase inhibitors. IC50s for GGTI and FTI were 1 μM. […] Adherent GFP+ cells were automatically quantified using MetaMorph software (Molecular Devices Software).

Series [3] in a line: Pharmacokinetic analysis of TG100-115 in serum. It counts as in vivo, Balb/c mice. Conditions: mouse. How it is done: as §1
In another series the test system is PyMT breast tumours. Kind of series: Spontaneous PyMT breast tumour progression in treated mice. It counts as in vivo, FVB PyMT+ female mice. How it is done:
Alternatively, 6 week old PyMT+ female mice (with spontaneous breast tumours), were treated by subcutaneous injection with ELN476063 (3 mg/kg body weight), or saline every third day for three weeks (n=10). Tumours were excised, weighed and analyzed from 6 weeks at 9 weeks of age.
PI3-kinase γ inhibitor studies: C57BL/6 mice were subcutaneously implanted on d1 with 5×10^5 LLC or by intradermal injection with 5×10^5 B16 melanoma cells. Mice were treated by i.p. injection with 2.5 mg/kg of PI3-kinase γ inhibitor (TG100-115) or with a chemically similar inert control (n=10) twice daily for fourteen days for a total daily dose of 5 mg/kg. In additional studies, C57BL/6 mice were subcutaneously implanted on d1 with 5×10^5 LLC and were treated by i.p. injection with 2.5 mg/kg, 0.25 mg/kg, or 0.025 mg/kg of PI3-kinase γ inhibitor (TG100-115), with 2.5 mg/kg of AS605240 or with a chemically similar inert control (n=10) twice daily for twenty-one days for a total daily dose of 5 mg/kg. Tumour volumes, weights and blood vessel densities, as well as myeloid cell densities were measured. Alternatively, 6 week old PyMT+ female mice (with spontaneous breast tumours), were treated by i.p. injection with 2.5 mg/kg PI3-kinase γ inhibitor (TG100-115) or inert control twice daily for three weeks (n=10). Tumours were excised, weighed and analyzed after 3 weeks. Alternatively, 6 week old FVB PyMT+ female mice were implanted with an Alzet osmotic pump with a 0.25 μl/h release rate containing 4.6 mg in 200 μl of TG100-115 or chemically similar, inert control (n=10). Mice were sacrificed at 9 weeks of age and tumours were analyzed.
Inguinal mammary glands were fixed in Carnoy's fixative, dehydrated through a graded series of ethanol solutions and defatted in xylene. Following rehydration, the mammary epithelium was stained with carmine stain (Sigma Chemical, St Louis, Mo.) for 30 min. After removing excess stain by washing in water, samples were dehydrated and stored in methyl salicylate (Sigma Chemical, St Louis, Mo.).^31

Each structure is given as a SMILES string. Like-named read-outs stand apart in the source and are kept apart here.

For `c1cc(CN2CCCNCCNCCCNCC2)ccc1CN1CCCNCCNCCCNCC1` [AMD3100], the “CD11b+ cell adhesion to endothelium” value in series [1] was “inhibited SDF-1α, and TCM-induced but not IL-1β induced adhesion”.
As to `Nc1nc(N)c2nc(-c3cccc(O)c3)c(-c3cccc(O)c3)nc2n1` [TG100-115, 3,3′-(2,4-diaminopteridine-6,7-diyl)diphenol], the “time after dosing for which PI3kinase activity is inhibited” value in the series with PI3kinase (5 mg/kg i.v., PBMC stimulated 3 min with SDF-1α) is listed as “up to 12 hours”. In addition, in the series with PI3kinase (mouse, in vivo), the “myeloid cell PI3kinase catalytic activity in vivo” value was “rapidly and sustainably inhibits myeloid cell PI3kinase catalytic activity in vivo”. For the same compound, in series [2] (IL-1β stimulated), the IC50 (in general, the concentration needed to halve the response being measured) stood at 281 nM. Further, in series [2] (SDF-1α stimulated), the IC50 came out at 158 nM. Besides, the half-life in series [3] (Balb/c, intravenous, 5 mg/kg, read-out: t1/2 in vivo (converted)) was 13.2 min. The compound also registered a concentration at 1 h in series [3] (iv, single i.v. dose of 5 mg/kg, Balb/c mice) of 7.1 ng/mL. For the same compound, the half-life in series [3] (iv, single i.v. dose of 5 mg/kg, Balb/c mice, read-out: half-life in mice in vivo (converted)) was 13.2 min. In the series with PyMT breast tumours, the “carcinoma area in mammary gland whole mounts” value was 6+/−1.3%, the “hyperplasia area in mammary gland whole mounts” value is 27+/−5% and the “normal tissue area in mammary gland whole mounts” value is given as 67+/−3%.
